Assay results: PubChem BioAssay (NCI)
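The concentration for 50% growth inhibition is given as GI50. TGI denotes the concentration required for complete inhibition of growth.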

How the values were obtained:
Assay in all cases: inhibition of tumour cell growth, NCI panel, 384-well format
[1] = system: NCI-H522 lung
[2] = system: HS 578T breast
[3] = system: T-47D breast
[4] = system: HOP-62 NSCLC
[5] = system: HCC-2998 colon
[6] = system: OVCAR-8 ovarian
[7] = system: HT29 colon
[8] = system: TK-10 renal
[9] = system: UACC-257 melanoma
[10] = system: RXF 393 renal
[11] = system: SNB-75 CNS
[12] = system: RPMI-8226 leukemia
[13] = system: ACHN renal
[14] = system: OVCAR-3 ovarian
[15] = system: BT-549 breast
[16] = system: MOLT-4 leukemia
[17] = system: SN12C renal
[18] = system: HCT-15 colon
[19] = system: SF-268 CNS
[20] = system: KM12 colon
[21] = system: SK-MEL-28 melanoma
[22] = system: 786-0 renal
[23] = system: OVCAR-4 ovarian
[24] = system: NCI-H23 lung
[25] = system: MALME-3M melanoma
[26] = system: UACC-62 melanoma
[27] = system: SW-620 colon
[28] = system: MCF7 breast
[29] = system: HOP-92 NSCLC
[30] = system: NCI-H226 lung
[31] = system: LOX IMVI melanoma
[32] = system: EKVX NSCLC
[33] = system: U251 glioblastoma
[34] = system: SF-539 CNS
[35] = system: SF-295 CNS
[36] = system: A549 NSCLC
[37] = system: A498 renal
[38] = system: SK-MEL-5 melanoma
[39] = system: OVCAR-5 ovarian
[40] = system: COLO 205 colon
[41] = system: MDA-MB-468 breast
[42] = system: MDA-MB-231 breast
[43] = system: M14 melanoma
[44] = system: SR leukemia
[45] = system: PC-3 prostate
[46] = system: IGROV1 ovarian
[47] = system: CCRF-CEM leukemia
[48] = system: K-562 leukemia
[49] = system: NCI/ADR-RES ovarian
[50] = system: MDA-MB-435 melanoma
[51] = system: CAKI-1 renal
[52] = system: SNB-19 CNS
[53] = system: NCI-H460 NSCLC
[54] = system: UO-31 renal
[55] = system: DU-145 prostate
[56] = system: NCI-H322M lung
[57] = system: HL-60(TB) leukemia
[58] = system: SK-OV-3 ovarian

`CNC(=O)CN1CCC(Oc2cc3c(Nc4cccc(Cl)c4F)ncnc3cc2OC)CC1` gave a GI50 [1] of 0.0493 µM, a TGI [1] of 11.6 µM and a GI50 [2] of 4.07 µM. For the same compound, the TGI [2] was 16.1 µM, the GI50 [3] was 0.38 µM and the TGI [3] was 6.28 µM. The GI50 [4] was 8.39 µM, the TGI [4] was 27.5 µM and the GI50 [5] was 14.9 µM. It also gave a TGI [5] of 28.4 µM, a GI50 [6] of 13.1 µM and a TGI [6] of 43.2 µM. It also gave a GI50 [7] of 11.3 µM, a TGI [7] of 24.6 µM and a GI50 [8] of 0.0537 µM. For the same compound, the TGI [8] was 13 µM, the GI50 [9] was 14.6 µM and the TGI [9] was 28.1 µM. The GI50 [10] was 10.1 µM, the TGI [10] was 25.5 µM and the GI50 [11] was 9.75 µM. It also gave a TGI [11] of 34.1 µM, a GI50 [12] of 9.35 µM and a TGI [12] of 21.5 µM. It also gave a GI50 [13] of 0.0298 µM, a TGI [13] of 10.7 µM and a GI50 [14] of 1.95 µM. It also gave a TGI [14] of 14.8 µM, a GI50 [15] of 11.7 µM and a TGI [15] of 27.1 µM. It also gave a GI50 [16] of 14.1 µM, a TGI [16] of 27.2 µM and a GI50 [17] of 0.426 µM. It also gave a TGI [17] of 9.66 µM, a GI50 [18] of 10.8 µM and a TGI [18] of 22.8 µM. For the same compound, the GI50 [19] was 9.9 µM, the TGI [19] was 36.4 µM and the GI50 [20] was 18.7 µM. The TGI [20] was 35.6 µM, the GI50 [21] was 13.9 µM and the TGI [21] was 27 µM. It also gave a GI50 [22] of 5.7 µM, a TGI [22] of 24.6 µM and a GI50 [23] of 3.28 µM. It also gave a TGI [23] of 24.3 µM, a GI50 [24] of 10.7 µM and a TGI [24] of 30.8 µM. It also gave a GI50 [25] of 12.8 µM, a TGI [25] of 26.7 µM and a GI50 [26] of 13.9 µM. For the same compound, the TGI [26] was 27.1 µM, the GI50 [27] was 13.9 µM and the TGI [27] was 27.4 µM. It also gave a GI50 [28] of 10.3 µM, a TGI [28] of 24.9 µM and a GI50 [29] of 4.39 µM. It also gave a TGI [29] of 20.2 µM, a GI50 [30] of 11.1 µM and a TGI [30] of 29.9 µM. The GI50 [31] was 10.7 µM, the TGI [31] was 22.6 µM and the GI50 [32] was 0.0357 µM. The TGI [32] was 4.33 µM, the GI50 [33] was 17.2 µM and the TGI [33] was 36.3 µM. It also gave a GI50 [34] of 12.4 µM, a TGI [34] of 25.5 µM and a GI50 [35] of 14.8 µM. It also gave a TGI [35] of 28.3 µM, a GI50 [36] of 2.31 µM and a TGI [36] of 17.7 µM. The GI50 [37] was 12.4 µM, the TGI [37] was 27.2 µM and the GI50 [38] was 10.2 µM. It also gave a TGI [38] of 21.9 µM, a GI50 [39] of 0.906 µM and a TGI [39] of 10.9 µM. For the same compound, the GI50 [40] was 15.3 µM, the TGI [40] was 28.7 µM and the GI50 [41] was under 0.01 µM. It also gave a GI50 [42] of 4.2 µM, a TGI [42] of 18.1 µM and a GI50 [43] of 15.3 µM. It also gave a TGI [43] of 29.1 µM, a GI50 [44] of 15.1 µM and a TGI [44] of 29.3 µM. For the same compound, the GI50 [45] was 14.7 µM, the TGI [45] was 35 µM and the GI50 [46] was 0.068 µM. The TGI [46] was 1.55 µM, the GI50 [47] was 15.3 µM and the TGI [47] was 29.9 µM. It also gave a GI50 [48] of 10.9 µM, a TGI [48] of 23.3 µM and a GI50 [49] of 12.9 µM. It also gave a TGI [49] of 29.4 µM, a GI50 [50] of 26.6 µM and a TGI [50] of 83.5 µM. It also gave a GI50 [51] of 0.915 µM, a TGI [51] of 13.5 µM and a GI50 [52] of 14.3 µM. The TGI [52] was 45.2 µM, the GI50 [53] was 16.3 µM and the TGI [53] was 34.1 µM. For the same compound, the GI50 [54] was 12.4 µM, the TGI [54] was over 100 µM and the GI50 [55] was 3.88 µM. The TGI [55] was 43.4 µM, the GI50 [56] was under 0.01 µM and the TGI [56] was 1.89 µM. It also gave a GI50 [57] of 18.9 µM, a TGI [57] of 33 µM and a GI50 [58] of 0.383 µM. For the same compound, the TGI [58] was 11.3 µM.
